Test results: BindingDB's records for doi:10.1016/S0960-894X(97)10014-2 (1997)
pIC50: −log10 of the molar value.

Assay: Inhibition of ADP induced platelet aggregation in human platelet-rich plasma (PRP).

Compound | pIC50
COc1ccc(C(CC(=O)O)N2CCc3cc(OCc4ccc(C(=N)N)cc4)ccc3C2=O)cc1 (stereo not drawn) [3-[6-(4-Carbamimidoyl-benzyloxy)-1-oxo-3,4-dihydro-1H-isoquinolin-2-yl]-3-(4-methoxy-phenyl)-propionic acid] | 6.59
N=C(N)c1ccc(COc2ccc3c(c2)CCN(C(CC(=O)O)c2ccccc2)C3=O)cc1 (stereo not drawn) [3-[6-(4-Carbamimidoyl-benzyloxy)-1-oxo-3,4-dihydro-1H-isoquinolin-2-yl]-3-phenyl-propionic acid] | 6.70
CCCCC(CC(=O)O)N1CCc2cc(OCc3ccc(C(=N)N)cc3)ccc2C1=O (stereo not drawn) [3-[6-(4-Carbamimidoyl-benzyloxy)-1-oxo-3,4-dihydro-1H-isoquinolin-2-yl]-heptanoic acid] | 6.22
CCCCCCC(CC(=O)O)N1CCc2cc(OCc3ccc(C(=N)N)cc3)ccc2C1=O (stereo not drawn) [3-[6-(4-Carbamimidoyl-benzyloxy)-1-oxo-3,4-dihydro-1H-isoquinolin-2-yl]-nonanoic acid] | 5.52
CCCCCC(CC(=O)O)N1CCc2cc(OCc3ccc(C(=N)N)cc3)ccc2C1=O (stereo not drawn) [3-[6-(4-Carbamimidoyl-benzyloxy)-1-oxo-3,4-dihydro-1H-isoquinolin-2-yl]-octanoic acid] | 6.24
CCC(CC(=O)O)N1CCc2cc(OCc3ccc(C(=N)N)cc3)ccc2C1=O (stereo not drawn) [3-[6-(4-Carbamimidoyl-benzyloxy)-1-oxo-3,4-dihydro-1H-isoquinolin-2-yl]-pentanoic acid] | 6.52

Now from value to compound:

pIC50 | Compound
4.52 | N=C(N)c1ccc(COc2ccc3c(c2)CCN(CC(=O)O)C3=O)cc1 [[6-(4-Carbamimidoyl-benzyloxy)-1-oxo-3,4-dihydro-1H-isoquinolin-2-yl]-acetic acid]
6.17 | COCCOCC(CC(=O)O)N1CCc2cc(OCc3ccc(C(=N)N)cc3)ccc2C1=O (stereo not drawn) [3-[6-(4-Carbamimidoyl-benzyloxy)-1-oxo-3,4-dihydro-1H-isoquinolin-2-yl]-4-(2-methoxy-ethoxy)-butyric acid]
6.22 | COCCCC(CC(=O)O)N1CCc2cc(OCc3ccc(C(=N)N)cc3)ccc2C1=O (stereo not drawn) [3-[6-(4-Carbamimidoyl-benzyloxy)-1-oxo-3,4-dihydro-1H-isoquinolin-2-yl]-6-methoxy-hexanoic acid]
6.33 | CCOCCCC(CC(=O)O)N1CCc2cc(OCc3ccc(C(=N)N)cc3)ccc2C1=O (stereo not drawn) [3-[6-(4-Carbamimidoyl-benzyloxy)-1-oxo-3,4-dihydro-1H-isoquinolin-2-yl]-6-ethoxy-hexanoic acid]
6.64 | CCCC(CC(=O)O)N1CCc2cc(OCc3ccc(C(=N)N)cc3)ccc2C1=O (stereo not drawn) [3-[6-(4-Carbamimidoyl-benzyloxy)-1-oxo-3,4-dihydro-1H-isoquinolin-2-yl]-hexanoic acid]
6.66 | COC(=O)c1ccc(C(CC(=O)O)N2CCc3cc(OCc4ccc(C(=N)N)cc4)ccc3C2=O)cc1 (stereo not drawn) [4-{1-[6-(4-Carbamimidoyl-benzyloxy)-1-oxo-3,4-dihydro-1H-isoquinolin-2-yl]-2-carboxy-ethyl}-benzoic acid methyl ester]

Assay: Inhibition of ADP induced platelet aggregation in human platelet-rich plasma (PRP)

pIC50 | Compound
6.38 | N=C(N)c1ccc(COc2ccc3c(c2)CCN(CCC(=O)O)C3=O)cc1 [3-[6-(4-Carbamimidoyl-benzyloxy)-1-oxo-3,4-dihydro-1H-isoquinolin-2-yl]-propionic acid]
